For ten compounds, GI50 and TGI results are on record in PubChem BioAssay (NCI).

What all share (assay): NCI tumour cell line growth inhibition, 48 h
The test system of assay [1] is NCI-H23 lung.
The subject of assay [2] is U251 CNS.
Assay [3] concerns HT29 colon.
For assay [4], the system named is MALME-3M melanoma.
Assay [5] has as its system OVCAR-4 ovarian.
The test system of assay [6] is HOP-62 NSCLC.
Assay [7] has as its system SK-MEL-5 melanoma.
The test system of assay [8] is TK-10 renal.
Assay [9] has as its system SF-539 CNS.

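Grown in 96-well plates, cells were treated for 48 hours with each compound at five concentrations. Insufficient inhibition: endpoint recorded as highest concentration tested. GI50 marks 50% less growth. TGI is the concentration that stops growth completely.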 Bounds are passed on as bounds.

As to `CC(=O)[CH-]C(=O)c1ccccc1.CC(=O)[CH-]C(=O)c1ccccc1.CC(C)CCCC(C)[C@H]1CCC2[C@@H]3CC=C4C[C@@H]([O-])CC[C@]4(C)C3CC[C@@]21C.CC[O-].[Ti+4]` (stereo partly drawn), the GI50 in assay [1] was 26.9 µM; in assay [2], 48.7 µM; in assay [3], 64 µM; in assay [4], 29.4 µM; in assay [5], 91.6 µM; in assay [6], 43.2 µM. In addition, the GI50 was 35.2 µM in assay [7], 45.6 µM in [8] and 34.1 µM in assay [9]. For the same compound, the TGI in assay [1] was 84.2 µM; in [2], above 100 µM; in [3] it was above 100 µM; in [4], 75.6 µM; in assay [5], above 100 µM; in assay [6], above 100 µM. For the same compound, the TGI in assay [7], in assay [8] and in [9] was above 100 µM in each case.

For the compound `O=C1NC(=O)C2C(=O)NC(=O)C1C2(c1ccccc1)c1cc[nH]c1` (stereo not drawn), the TGI in assay [1], in assay [3], in assay [4], in assay [5], in assay [6] and in [7] was above 100 µM throughout. Moreover, the TGI in [8] and in assay [9] was above 100 µM each time.

As to `O=c1ccn(C2OC(CO/N=C/c3ccc(O)c(O)c3O)C(O)C2O)c(=O)[nH]1` (stereo not drawn), the GI50 was 22.6 µM in assay [1]; 16.8 µM in assay [2]; 28.9 µM in [3]; 10.1 µM in assay [4]; 18.9 µM in assay [5]; 67.6 µM in [6]. For the same compound, the figures for the GI50 in assay [7], in [8] and in [9] were 19.4 µM, above 100 µM and 52.1 µM, respectively. Also, the TGI in assay [1] was 49.6 µM; in [2], 30.4 µM; in assay [3], 84.3 µM; in [4], above 100 µM; in assay [5], 37.8 µM; in [6] it was above 100 µM. Further, the figures for the TGI in [7], in assay [8] and in [9] were 33.5 µM, above 100 µM and above 100 µM, respectively.

As to `CC(=O)[CH-]C(=O)c1ccccc1.CC(=O)[CH-]C(=O)c1ccccc1.CC1(C)C2CCC1(C)C([O-])C2.CC1(C)C2CCC1(C)C([O-])C2.[Ti+4]`, the GI50 was 40.4 µM in assay [2]; 56.7 µM in [3]; 12.4 µM in assay [4]; 97.3 µM in [5]; 25.7 µM in [6]; 21.9 µM in assay [7]. In addition, the results for the GI50 in assay [8] and in [9] were 53.5 µM and 17.8 µM, respectively. The TGI in assay [2] was above 100 µM; in assay [3], above 100 µM; in assay [4] it was 30.2 µM; in assay [5], above 100 µM; in assay [6] it was 81.8 µM; in assay [7], 39.1 µM. Besides, the TGI was above 100 µM in assay [8] and 45.9 µM in assay [9].

In the case of `O=c1cc2ccccc2nn1Cc1cccc(Cl)c1`, the TGI in assay [1], in assay [2], in assay [3], in [4], in assay [5] and in [6] was above 100 µM each time. Moreover, the TGI in [7], in [8] and in assay [9] was above 100 µM in each case.

For the compound `N#CC(C(=O)/C(=N/N)C(C#N)c1ccccc1)c1ccccc1` (stereo not drawn), the TGI in assay [1], in assay [2], in assay [3], in [4], in assay [5] and in assay [6] was above 100 µM throughout. The TGI in [7], in assay [8] and in [9] was above 100 µM in each case.

For the compound `Cc1ccccc1C(=O)c1ccccc1O`, the TGI in assay [1], in [2], in [3], in assay [4], in assay [5] and in assay [6] was above 100 µM throughout. The TGI in assay [7], in assay [8] and in [9] was above 100 µM each time.

With `CC(=O)[CH-]C(=O)c1ccccc1.CC(=O)[CH-]C(=O)c1ccccc1.[Eu+3].[OH-].[OH3+]`, the GI50 in assay [1], in [2], in assay [3], in [5], in [6] and in assay [7] was above 100 µM each time. Also, the GI50 in [8] and in assay [9] was above 100 µM each time. For the same compound, the TGI in assay [1], in assay [2], in assay [3], in [5], in assay [6] and in [7] was above 100 µM throughout. The TGI in assay [8] and in assay [9] was above 100 µM in each case.

As to `O=C1c2cc3c(cc2-c2c1c1ccc(Cl)cc1c(=O)n2CCCNCCO)OCO3`, the GI50 in assay [1] is 0.0553 µM; in assay [2], 0.0403 µM; in [3] it was 0.135 µM; in assay [5], 1.48 µM; in assay [6], 0.0714 µM; in assay [7], 0.387 µM. Also, the GI50 is 1.5 µM in assay [8] and 0.242 µM in assay [9]. The TGI was found to be 1.43 µM in assay [1]; 1.4 µM in assay [2]; 2.02 µM in assay [3]; 3.32 µM in [5]; 1.73 µM in assay [6]; 1.58 µM in assay [7]. Also, the TGI in assay [8] was found to be 2.94 µM; in assay [9] it was 1.35 µM.

For the compound `Fc1ccc2c(c1)c(-c1nc(-c3c[nH]c4ncccc34)cs1)cn2CCCN1CCCCC1`, the GI50 is 1.64 µM in [1]; 1.82 µM in assay [2]; 1.68 µM in [3]; 1.83 µM in [5]; 1.76 µM in assay [7]; 1.85 µM in [8]. Moreover, the GI50 in assay [9] is 1.67 µM. The TGI in [1] worked out at 3.13 µM; in assay [2], 3.33 µM; in assay [3], 3.24 µM; in assay [5], 4.01 µM; in assay [7], 3.17 µM; in [8] it was 3.42 µM. In addition, the TGI in assay [9] worked out at 3.1 µM.
